What was measured:
human MCHR1 [1] = molecular target: T1, human MCHR1 (Homo sapiens, UniProt Q99705); experiment: Human MCH receptor 1 (MCHR1) binding inhibitory activity, binding assay with [125I]-MCH(4-19); conditions: test compound 0.1 μM, human MCHR1-expressing CHO cell membrane fraction, read-out: Binding inhibition rate % (0.1 μM)
T1 construct: expressed in transfected cells; host or cells: CHO cell clone 57 (described in WO01/82925); membrane fraction
Procedure: Determination of Human MCH Receptor 1 (MCHR1) Binding Inhibitory Activity of Test Compound Using Binding Assay
1. Preparation of Membrane Fraction
Using human MCHR1(=SLC-1 receptor)-expressing CHO cell clone 57 described in WO01/82925, MCHR1-expressing CHO cellular membrane fractions were prepared by the following method.
In phosphate buffered saline (pH 7.4) supplemented with 5 mM EDTA (ethylenediaminetetraacetic acid) were respectively suspended human MCHR1-expressing CHO cells (1×10^8 cells) and centrifuged. Homogenate buffer (10 mL, 10 mM NaHCO3, 5 mM EDTA, pH 7.5, 0.5 mM PMSF (phenylmethylsulfonyl fluoride), 20 mg/L leupeptin, 4 mg/L E-64, 1 mg/L pepstatin A) was added to the pellets of the cells and, using Polytron Homogenizer, the mixture was homogenated. The supernatant obtained after centrifugation at 400×g for 10 min was further centrifuged at 100,000×g for 1 hr to give precipitate of the membrane fraction. The precipitate were suspended in 2 mL of assay buffer [20 mM Tris-HCl (pH 7.5), 5 mM EDTA, 0.5 mM PMSF, 20 mg/L leupeptin, 4 mg/L E-64, 1 mg/L pepstatin A]. The membrane fractions were suspended in assay buffer to a protein concentration of 2 mg/mL, and after dispensing, preserved at −80° C. and used upon thawing each time when in use.
The MCHR1 ligand binding inhibitory activity of the test compound was determined as follows.
An MCHR1-expressing CHO cellular membrane fraction (173 μL) diluted with an assay buffer was dispensed to a 96 well polypropylene plate (3363, Corning). DMSO solution (2 μL), 33 μM cold MCH(1-19) diluted with DMSO solution (2 μL), or a test compound solution diluted with DMSO solution to various concentrations (2 μL) was added, and lastly, [^125I]-MCH(4-19) diluted with assay buffer (hereinafter, sometimes to be referred to as “hot MCH”, 25 μL) was added to each well. The mixture was reacted with stirring at room temperature for 1 hr, and the plate was set on FilterMate Harvester (PerkinElmer). Using a treating glass filter plate (GF/C, PerkinElmer) with polyethyleneimine, which had been previously set, the plate was suction-filtered and washed three times with washing buffer (50 mM Tris-HCl buffer pH 7.5). The glass filter plate was dried, MicroScinti0 (PerkinElmer) was added at 25 μL/well, and the resulting radioactivity was measured by TopCount liquid scintillation counter (PerkinElmer). The binding inhibition rate of the test compound was calculated by the following formula. Binding inhibition (%)=100−(radioactivity upon addition of test compound and hot MCH−radioactivity upon addition of cold MCH and hot MCH solution)/(radioactivity upon addition of DMSO solution and hot MCH−radioactivity upon addition of cold MCH and hot MCH solution)×100
The binding inhibition rates (%) of test compounds (0.1 μM) as measured using human MCHR1-expressing CHO cell are shown in Table 2.

human MCHR1 [2] = molecular target: T1, human MCHR1; experiment: MCH receptor 1 antagonistic activity, Ca2+ mobilization assay; assay type: cell-based; conditions: test compound 0.1 μM; human MCHR1-expressing CHO cells (clone #4); MCH(4-19) 2 nM; read-out: Inhibition rate % (0.1 μM)
Procedure: Measurement of MCH Receptor 1 Antagonistic Activity of Test Compound Using Ca^2+ Mobilization Assay
Using an expression vector plasmid introduced with human MCHR1 gene for expression in animal cells, human MCHR1 gene was introduced into CHO cells (CHO dhfr^−) by Lipofectamine LTX (Invitrogen). The cells were cultured in selection MEMα medium [445 mL of MEMα medium without nucleic acid and added with 5 mL of Penicillin-Streptomycin (Invitrogen) and 50 mL of dialyzed fetal bovine serum]. Colony 24 clones grown in the selection medium, which were human MCHR1 gene-expressing CHO cell candidates, were selected. […] In the following test, this human MCHR1-expressing CHO cell (clone #4) was used. An integrated dispensing function fluorometer (CellLux, PerkinElmer) was used for Ca^2+ mobilization assay. The CHO cells were sown in a 96 well plate (type 3904, Corning) with a black wall and clear well bottom at a density of 20000 cells/well, and cultured in an incubator for about 24 hr at 5% CO2, 37° C. The medium was removed, and the cells were washed with phosphate buffered saline (PBS). A Ca^2+ indicator dye reagent (DOJINDO LABORATORIES, Ca screening no-wash kit Fluo4) was added at 100 μL/well, and the dye was allowed to penetrate into the cell for 30 min in an incubator at 5% CO2, 37° C. The plate was set on a plate reader. First, a test compound solution diluted with an assay buffer [10 mM HEPES (pH 7.4), 1× assay buffer containing 0.1% BSA (DOJINDO LABORATORIES, attached to Ca screening no-wash kit Fluo4)] or DMSO solution was added at 50 μL/well, and then ligand MCH (4-19) peptide (final concentration 2 nM) diluted with assay buffer or DMSO was added at 50 μL/well, during which changes in intracellular fluorescence were measured at 2 second intervals. The antagonistic activity of the test compound was calculated by the following formula and shown as an inhibition rate (%) wherein the intracellular fluorescence activity resulting from the stimulation by the addition of ligand MCH (4-19) peptide was 100% and that of the well added with DMSO solution alone was 0%. inhibitory rate (%)=100−[fluorescence activity upon addition of test compound and MCH(4-19) peptide solution−fluorescence activity upon addition of DMSO solution only]/[fluorescence activity upon addition of DMSO solution and MCH(4-19) peptide solution−fluorescence activity upon addition of DMSO solution only]×100
The inhibition rates (%) of test compounds (0.1 μM) as antagonist activity measured using human MCHR1-expressing CHO cells (clone #4) are shown in the following Table 3.

T1 sequence (Q99705 whole entry): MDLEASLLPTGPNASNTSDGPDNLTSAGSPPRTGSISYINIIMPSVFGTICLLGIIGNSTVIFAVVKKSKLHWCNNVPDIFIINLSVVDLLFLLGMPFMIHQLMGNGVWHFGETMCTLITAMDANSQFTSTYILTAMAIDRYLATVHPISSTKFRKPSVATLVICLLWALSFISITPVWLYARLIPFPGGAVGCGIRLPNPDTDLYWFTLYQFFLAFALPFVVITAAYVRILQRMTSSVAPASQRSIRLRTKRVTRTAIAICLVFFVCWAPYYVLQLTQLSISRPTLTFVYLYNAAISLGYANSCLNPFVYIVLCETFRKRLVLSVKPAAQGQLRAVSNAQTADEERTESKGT

inhibition at 0.1 µM (human MCHR1 [1]) | inhibition at 0.1 µM (human MCHR1 [2]) | Structure (SMILES)
71% | – | CCC1(COc2ccc(-n3ccc4oc(-c5ccc(Cl)cc5)cc4c3=O)cc2OC)COC1 [Example 48, 2-(4-Chlorophenyl)-5-(4-((3-ethyloxetan-3-yl)methoxy)-3-methoxyphenyl)furo[3,2-c]pyridin-4(5H)-one]
91% | 95% | COc1cc(-n2ccc3oc(-c4ccc(Cl)cc4)cc3c2=O)ccc1OCC1COC1 [Example 40, 2-(4-Chlorophenyl)-5-(3-methoxy-4-(oxetan-3-ylmethoxy)phenyl)furo[3,2-c]pyridin-4(5H)-one]
92% | 99% | COc1cc(-n2ccc3oc(-c4ccc(Cl)cc4)cc3c2=O)ccc1OCC1CCO1 (stereo not drawn) [Example 43, 2-(4-Chlorophenyl)-5-(3-methoxy-4-(oxetan-2-ylmethoxy)phenyl)furo[3,2-c]pyridin-4(5H)-one]
74% | – | CCc1cc(-n2ccc3oc(-c4ccc(Cl)cc4)cc3c2=O)ccc1OCC1(C#N)CC1 [Example 47, 1-((4-(2-(4-Chlorophenyl)-4-oxofuro[3,2-c]pyridin-5(4H)-yl)-2-ethylphenoxy)methyl)cyclopropanecarbonitrile]
74% | – | COc1cc(-n2ccc3oc(-c4ccc(Cl)cc4)cc3c2=O)ccc1C(=O)NCC1CC1 [Example 45, 4-(2-(4-Chlorophenyl)-4-oxofuro[3,2-c]pyridin-5(4H)-yl)-N-(cyclopropylmethyl)-2-methoxybenzamide]
85% | – | COc1cc(-n2ccc3oc(-c4ccc(Cl)cc4)cc3c2=O)ccc1OCC(N)=O [Example 50, 2-(4-(2-(4-Chlorophenyl)-4-oxofuro[3,2-c]pyridin-5(4H)-yl)-2-methoxyphenoxy)acetamide]
90% | – | COc1cc(-n2ccc3oc(-c4ccc(Cl)cc4)cc3c2=O)ccc1OCCCC(N)=O [Example 51, 4-(4-(2-(4-Chlorophenyl)-4-oxofuro[3,2-c]pyridin-5(4H)-yl)-2-methoxyphenoxy)butanamide]

Further lines, the compound ahead of its results:

Structure (SMILES) | inhibition at 0.1 µM (human MCHR1 [1]) | inhibition at 0.1 µM (human MCHR1 [2])
COc1cc(-n2ccc3oc(-c4ccc(Cl)cc4)cc3c2=O)ccc1OCC1(C#N)CC1 [Example 5, 1-((4-(2-(4-Chlorophenyl)-4-oxofuro[3,2-c]pyridin-5(4H)-yl)-2-methoxyphenoxy)methyl)cyclopropanecarbonitrile] | 97% | 100%
COc1cc(-n2ccc3oc(-c4ccc(Cl)cc4)cc3c2=O)ccc1OCC1CCOC1 (stereo not drawn) [Example 39, 2-(4-Chlorophenyl)-5-(3-methoxy-4-(tetrahydrofuran-3-ylmethoxy)phenyl)furo[3,2-c]pyridin-4(5H)-one] | 96% | 84%
COc1cc(-n2cnc3oc(-c4ccc(Cl)cc4)cc3c2=O)ccc1OCC1(C#N)CC1 [Example 6, 1-((4-(6-(4-Chlorophenyl)-4-oxofuro[2,3-d]pyrimidin-3(4H)-yl)-2-methoxyphenoxy)methyl)cyclopropanecarbonitrile] | 82% | 37%
COC(=O)c1ccc(-n2ccc3oc(-c4ccc(Cl)cc4)cc3c2=O)cc1OC [Example 24, Methyl 4-(2-(4-chlorophenyl)-4-oxofuro[3,2-c]pyridin-5(4H)-yl)-2-methoxybenzoate] | 47% | –
COc1cc(-n2ccc3oc(-c4ccc(Cl)cc4)cc3c2=O)ccc1O [Example 30, 2-(4-Chlorophenyl)-5-(4-hydroxy-3-methoxyphenyl)furo[3,2-c]pyridin-4(5H)-one] | 66% | –
COc1cc(-n2ccc3oc(-c4ccc(OC(F)(F)F)cc4)cc3c2=O)ccc1OCC1(C#N)CC1 [Example 28, 1-((2-Methoxy-4-(4-oxo-2-(4-(trifluoromethoxy)phenyl)furo[3,2-c]pyridin-5(4H)-yl)phenoxy)methyl)cyclopropanecarbonitrile] | 63% | 24%
Cc1cc(-n2ccc3oc(-c4ccc(Cl)cc4)cc3c2=O)ccc1OCC1(C#N)CC1 [Example 33, 1-((4-(2-(4-Chlorophenyl)-4-oxofuro[3,2-c]pyridin-5(4H)-yl)-2-methylphenoxy)methyl)cyclopropanecarbonitrile] | 84% | 34%
COc1cc(-n2ccc3oc(-c4ccc(Cl)s4)cc3c2=O)ccc1OCC1(C#N)CC1 [Example 12, 1-((4-(2-(5-Chloro-2-thienyl)-4-oxofuro[3,2-c]pyridin-5(4H)-yl)-2-methoxyphenoxy)methyl)cyclopropanecarbonitrile] | 53% | 64%
COc1ccc(-c2cc3c(=O)n(-c4ccc(OCC5(C#N)CC5)c(OC)c4)ccc3o2)cc1 [Example 16, 1-((2-Methoxy-4-(2-(4-methoxyphenyl)-4-oxofuro[3,2-c]pyridin-5(4H)-yl)phenoxy)methyl)cyclopropanecarbonitrile] | 79% | 97%
N#CC1(COc2ccc(-n3ccc4oc(-c5ccc(Cl)cc5)cc4c3=O)cc2Cl)CC1 [Example 8, 1-((2-Chloro-4-(2-(4-chlorophenyl)-4-oxofuro[3,2-c]pyridin-5(4H)-yl)phenoxy)methyl)cyclopropanecarbonitrile] | 76% | –
COc1cc(-n2ccc3oc(-c4ccc(C(F)(F)F)cc4)cc3c2=O)ccc1OCC1(C#N)CC1 [Example 27, 1-((2-Methoxy-4-(4-oxo-2-(4-(trifluoromethyl)phenyl)furo[3,2-c]pyridin-5(4H)-yl)phenoxy)methyl)cyclopropanecarbonitrile] | 60% | –
COc1cc(-n2ccc3oc(-c4ccccc4)cc3c2=O)ccc1OCC1(C#N)CC1 [Example 20, 1-((2-Methoxy-4-(4-oxo-2-phenylfuro[3,2-c]pyridin-5(4H)-yl)phenoxy)methyl)cyclopropanecarbonitrile] | 58% | –
COc1cc(-n2ccc3oc(-c4ccc(F)cn4)cc3c2=O)ccc1OCC1(C#N)CC1 [Example 21, 1-((4-(2-(5-Fluoropyridin-2-yl)-4-oxofuro[3,2-c]pyridin-5(4H)-yl)-2-methoxyphenoxy)methyl)cyclopropanecarbonitrile] | 42% | –
COc1cc(-n2ccc3oc(-c4ccccc4F)cc3c2=O)ccc1OCC1(C#N)CC1 [Example 15, 1-((4-(2-(2-Fluorophenyl)-4-oxofuro[3,2-c]pyridin-5(4H)-yl)-2-methoxyphenoxy)methyl)cyclopropanecarbonitrile] | 17% | –
